Columns and labels:
[1] = target: T1, Gonadotropin-releasing hormone receptor (Rattus norvegicus, UniProt P30969); test: Inhibitory concentration towards rat leutinizing releasing hormone receptor
T1 sequence (P30969 whole entry): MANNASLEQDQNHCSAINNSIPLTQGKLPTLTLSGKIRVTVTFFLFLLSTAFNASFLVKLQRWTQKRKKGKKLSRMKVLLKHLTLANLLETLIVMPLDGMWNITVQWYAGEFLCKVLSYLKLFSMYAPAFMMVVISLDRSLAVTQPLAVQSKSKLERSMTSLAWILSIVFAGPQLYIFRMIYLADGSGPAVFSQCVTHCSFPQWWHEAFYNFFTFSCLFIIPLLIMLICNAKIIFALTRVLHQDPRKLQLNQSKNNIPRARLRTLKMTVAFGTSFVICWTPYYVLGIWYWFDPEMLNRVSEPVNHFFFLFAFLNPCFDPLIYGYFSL

[2] = target: T2, Gonadotropin-releasing hormone receptor (Homo sapiens, UniProt P30968); test: Inhibitory concentration towards human leutinizing releasing hormone receptor
T2 sequence (P30968 whole entry): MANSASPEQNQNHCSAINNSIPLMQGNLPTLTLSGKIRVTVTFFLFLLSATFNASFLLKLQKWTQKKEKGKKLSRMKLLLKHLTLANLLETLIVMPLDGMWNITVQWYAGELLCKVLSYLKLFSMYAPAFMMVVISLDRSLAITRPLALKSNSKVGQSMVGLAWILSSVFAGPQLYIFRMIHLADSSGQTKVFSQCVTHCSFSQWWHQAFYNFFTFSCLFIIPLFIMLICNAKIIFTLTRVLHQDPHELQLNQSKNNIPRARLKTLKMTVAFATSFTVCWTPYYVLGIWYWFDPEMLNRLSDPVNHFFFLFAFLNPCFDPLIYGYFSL

SMILES | IC50 [1] | IC50 [2]
CC(C)(C)NC(=O)NCCc1nc2cc(S(=O)(=O)NCc3ccccc3)ccc2n1Cc1ccccc1 | 0.31 µM | 0.49 µM
CC(C)(C)CC(=O)NCCc1nc2cc(S(=O)(=O)NCc3ccc(F)cc3)ccc2n1Cc1ccccc1 | 0.84 µM | 2.6 µM
CC(C)(C)NC(=O)NCCCc1nc2cc(S(=O)(=O)NCc3ccc(F)cc3)ccc2n1Cc1ccccc1 | 0.083 µM | 0.18 µM
CC(C)NC(=O)NCCc1nc2cc(S(=O)(=O)NCc3ccc(F)cc3)ccc2n1Cc1ccccc1 | 0.079 µM | 0.15 µM
CC(C)(C)OC(=O)NCCc1nc2cc(S(=O)(=O)NCc3ccc(F)cc3)ccc2n1Cc1ccccc1 | 0.54 µM | 0.74 µM
CCCc1nc2cc(S(=O)(=O)NCc3ccc(F)cc3)ccc2n1Cc1ccccc1 | > 10 µM | > 10 µM
CC(C)c1nc2cc(S(=O)(=O)NCc3ccc(F)cc3)ccc2n1Cc1ccccc1 | 0.69 µM | 0.39 µM
O=S(=O)(NCc1ccc(F)cc1)c1ccc2c(c1)nc(C1CC1)n2Cc1ccccc1 | 1.6 µM | 1.9 µM
CCNC(=O)NCCc1nc2cc(S(=O)(=O)NCc3ccc(F)cc3)ccc2n1Cc1ccccc1 | 0.38 µM | 0.69 µM
COc1ccc(CNS(=O)(=O)c2ccc3c(c2)nc(CCNC(=O)NC(C)(C)C)n3Cc2ccccc2)cc1 | 0.2 µM | 0.34 µM
CC(C)(C)NC(=O)NCCc1nc2cc(S(=O)(=O)NCc3ccccc3F)ccc2n1Cc1ccccc1 | 0.45 µM | 0.75 µM
CC(C)(C)NC(=O)NCCc1nc2cc(S(=O)(=O)NCc3ccc(F)c(F)c3)ccc2n1Cc1ccccc1 | 0.11 µM | 0.17 µM
NCCc1nc2cc(S(=O)(=O)NCc3ccc(F)cc3)ccc2n1Cc1ccccc1 | > 10 µM | > 10 µM
CC(C)(C)NC(=O)CCCc1nc2cc(S(=O)(=O)NCc3ccc(F)cc3)ccc2n1Cc1ccccc1 | 0.23 µM | 0.4 µM

These reach a lower IC50 [1]. Values come first.

IC50 [1] | IC50 [2] | SMILES
0.012 µM | 0.02 µM | CC(C)(C)NC(=O)NCCc1nc2cc(S(=O)(=O)NCc3ccc(F)cc3)ccc2n1Cc1ccccc1
0.0039 µM | 0.0042 µM | CC(C)(C)NC(=O)NCCc1nc2cc(S(=O)(=O)NCc3ccc(Cl)cc3)ccc2n1Cc1ccccc1
0.051 µM | 0.057 µM | CC(C)(C)NC(=O)NCCc1nc2cc(S(=O)(=O)NCc3ccc(C(F)(F)F)c(F)c3)ccc2n1Cc1ccccc1
0.053 µM | 0.066 µM | O=C(NCCc1nc2cc(S(=O)(=O)NCc3ccc(F)cc3)ccc2n1Cc1ccccc1)Nc1ccccc1F
0.014 µM | 0.022 µM | CC(C)(C)NC(=O)NCCc1nc2cc(S(=O)(=O)NCc3ccc(Cl)cc3Cl)ccc2n1Cc1ccccc1
0.03 µM | 0.11 µM | CC(C)(C)CNC(=O)NCCc1nc2cc(S(=O)(=O)NCc3ccc(F)cc3)ccc2n1Cc1ccccc1
0.05 µM | 0.083 µM | O=C(NCCc1nc2cc(S(=O)(=O)NCc3ccc(F)cc3)ccc2n1Cc1ccccc1)Nc1ccccc1Cl
